According to ChEMBL document CHEMBL1201862, “PubChem BioAssay data set” (2004):
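Step 1: Grow cells in 96-well plates. Step 2: Expose to compound for 48 hours at 5 concentrations. Step 3: Interpolate endpoints linearly; if unreached, use highest concentration. Abbreviation: GI50, concentration required for 50% inhibition of growth.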 The source made the active and inactive calls. Cut-off read from the data, not from the text of the source: active = GI50 up to about 1.1 µM and inactive = higher.

Legend:
Test in all cases: inhibition of tumour cell growth, NCI panel, 48 h
OVCAR-5 = test system: OVCAR-5
T47D = test system: T47D
OVCAR-4 = test system: OVCAR-4
MDA-MB-231 = test system: MDA-MB-231
U-251 = test system: U-251
SF-539 = test system: SF-539
NCI-H460 = test system: NCI-H460
IGROV-1 = test system: IGROV-1
SR = test system: SR
HOP-92 = test system: HOP-92
SF-295 = test system: SF-295
MOLT-4 = test system: MOLT-4
HOP-62 = test system: HOP-62
UO-31 = test system: UO-31
ACHN = test system: ACHN
EKVX = test system: EKVX
TK-10 = test system: TK-10
LOX IMVI = test system: LOX IMVI
SK-MEL-2 = test system: SK-MEL-2
HCT-15 = test system: HCT-15
K562 = test system: K562
SNB-75 = test system: SNB-75
M14 = test system: M14
KM12 = test system: KM12
A549 = test system: A549
NCI-H522 = test system: NCI-H522
SW-620 = test system: SW-620
NCI-H23 = test system: NCI-H23
MCF7 = test system: MCF7
SNB-19 = test system: SNB-19
Malme-3M = test system: Malme-3M
CAKI-1 = test system: CAKI-1
SK-OV-3 = test system: SK-OV-3
OVCAR-3 = test system: OVCAR-3
SF-268 = test system: SF-268
HCC 2998 = test system: HCC 2998
MDA-MB-435 = test system: MDA-MB-435
Hs-578T = test system: Hs-578T
OVCAR-8 = test system: OVCAR-8
UACC-257 = test system: UACC-257
786-0 = test system: 786-0
NCI-H226 = test system: NCI-H226
HT-29 = test system: HT-29
COLO 205 = test system: COLO 205
DU-145 = test system: DU-145
CCRF-CEM = test system: CCRF-CEM
RPMI-8226 = test system: RPMI-8226
A498 = test system: A498
NCI/ADR-RES = test system: NCI/ADR-RES
PC-3 = test system: PC-3
UACC-62 = test system: UACC-62
RXF 393 = test system: RXF 393
SK-MEL-5 = test system: SK-MEL-5
SK-MEL-28 = test system: SK-MEL-28
MDA-N = test system: MDA-N
HCT-116 = test system: HCT-116
HL-60 = test system: HL-60
BT-549 = test system: BT-549
SN12C = test system: SN12C

In the case of CCC1(O)CC2CC(=O)OC2C1O (centres undefined), the GI50 (OVCAR-5) is reported as > 100 µM (inactive), the GI50 (T47D) is reported as > 100 µM (inactive) and the GI50 (OVCAR-4) is reported as > 100 µM (inactive). The GI50 (MDA-MB-231) was > 100 µM (inactive), the GI50 (U-251) was > 100 µM (inactive) and the GI50 (SF-539) was > 100 µM (inactive). For the same compound, the GI50 (NCI-H460) was > 100 µM (inactive), the GI50 (IGROV-1) was > 100 µM (inactive) and the GI50 (SR) was > 100 µM (inactive). For the same compound, the GI50 (HOP-92) was > 100 µM (inactive), the GI50 (SF-295) was > 100 µM (inactive) and the GI50 (MOLT-4) was > 100 µM (inactive). For the same compound, the GI50 (HOP-62) was > 100 µM (inactive), the GI50 (UO-31) was > 100 µM (inactive) and the GI50 (ACHN) was > 100 µM (inactive). The GI50 (EKVX) was > 100 µM (inactive), the GI50 (TK-10) was > 100 µM (inactive) and the GI50 (LOX IMVI) was > 100 µM (inactive). The GI50 (SK-MEL-2) was > 100 µM (inactive), the GI50 (HCT-15) was greater than 100 µM and the GI50 (K562) was > 100 µM (inactive). For the same compound, the GI50 (SNB-75) was > 100 µM (inactive), the GI50 (M14) was > 100 µM (inactive) and the GI50 (KM12) was > 100 µM (inactive). The GI50 (A549) was > 100 µM (inactive), the GI50 (NCI-H522) was > 100 µM (inactive) and the GI50 (SW-620) was > 100 µM (inactive). The GI50 (NCI-H23) was > 100 µM (inactive), the GI50 (MCF7) was > 100 µM (inactive) and the GI50 (SNB-19) was > 100 µM (inactive). The GI50 (Malme-3M) was > 100 µM (inactive), the GI50 (CAKI-1) was > 100 µM (inactive) and the GI50 (SK-OV-3) was > 100 µM (inactive). For the same compound, the GI50 (OVCAR-3) was > 100 µM (inactive), the GI50 (SF-268) was > 100 µM (inactive) and the GI50 (HCC 2998) was > 100 µM (inactive). For the same compound, the GI50 (MDA-MB-435) was > 100 µM (inactive), the GI50 (Hs-578T) was > 100 µM (inactive) and the GI50 (OVCAR-8) was > 100 µM (inactive). For the same compound, the GI50 (UACC-257) was > 100 µM (inactive), the GI50 (786-0) was > 100 µM (inactive) and the GI50 (NCI-H226) was > 100 µM (inactive). The GI50 (HT-29) was > 100 µM (inactive), the GI50 (COLO 205) was > 100 µM (inactive) and the GI50 (DU-145) was > 100 µM (inactive). For the same compound, the GI50 (CCRF-CEM) was 0.423 µM (active), the GI50 (RPMI-8226) was > 100 µM (inactive) and the GI50 (A498) was > 100 µM (inactive). The GI50 (NCI/ADR-RES) was > 100 µM (inactive), the GI50 (PC-3) was > 100 µM (inactive) and the GI50 (UACC-62) was > 100 µM (inactive). For the same compound, the GI50 (RXF 393) was > 100 µM (inactive), the GI50 (SK-MEL-5) was > 100 µM (inactive) and the GI50 (SK-MEL-28) was > 100 µM (inactive). For the same compound, the GI50 (MDA-N) was > 100 µM (inactive).
COc1ccccc1/C=C1\NC(=S)N(/C=C2\C(=O)Oc3ccccc3C2=O)C1=O was tested, and the GI50 (OVCAR-5) was > 100 µM (inactive), the GI50 (OVCAR-4) was 24.9 µM (inactive) and the GI50 (MDA-MB-231) was 40.7 µM (inactive). For the same compound, the GI50 (U-251) was 23.2 µM (inactive), the GI50 (SF-539) was 25.5 µM (inactive) and the GI50 (NCI-H460) was 41.4 µM (inactive). For the same compound, the GI50 (IGROV-1) was 26.6 µM (inactive), the GI50 (HOP-92) was 7.76 µM (inactive) and the GI50 (SF-295) was 45.2 µM (inactive). The GI50 (MOLT-4) was 11 µM (inactive), the GI50 (HOP-62) was > 100 µM (inactive) and the GI50 (HCT-116) was 14.2 µM (inactive). For the same compound, the GI50 (UO-31) was 21.2 µM (inactive), the GI50 (HL-60) was 9.84 µM (inactive) and the GI50 (ACHN) was 55.6 µM (inactive). The GI50 (EKVX) was 16.9 µM (inactive), the GI50 (TK-10) was 33.5 µM (inactive) and the GI50 (LOX IMVI) was 60.5 µM (inactive). For the same compound, the GI50 (BT-549) was 21.9 µM (inactive), the GI50 (SK-MEL-2) was 62.1 µM (inactive) and the GI50 (HCT-15) was 32.2 µM. For the same compound, the GI50 (SNB-75) was 30.1 µM (inactive), the GI50 (M14) was 64.1 µM (inactive) and the GI50 (KM12) was 47 µM (inactive). For the same compound, the GI50 (A549) was 51.6 µM (inactive), the GI50 (NCI-H522) was 39.4 µM (inactive) and the GI50 (SW-620) was 53.2 µM (inactive). The GI50 (NCI-H23) was 35.9 µM (inactive), the GI50 (MCF7) was 71.4 µM (inactive) and the GI50 (SN12C) was > 100 µM (inactive). The GI50 (SNB-19) was 38.2 µM (inactive), the GI50 (CAKI-1) was > 100 µM (inactive) and the GI50 (SK-OV-3) was 80.4 µM (inactive). For the same compound, the GI50 (OVCAR-3) was 32.1 µM (inactive), the GI50 (SF-268) was 98.6 µM (inactive) and the GI50 (HCC 2998) was 53.7 µM (inactive). For the same compound, the GI50 (MDA-MB-435) was 35.2 µM (inactive), the GI50 (Hs-578T) was > 100 µM (inactive) and the GI50 (OVCAR-8) was 36.6 µM (inactive). The GI50 (UACC-257) was 42.4 µM (inactive), the GI50 (786-0) was 52.5 µM (inactive) and the GI50 (NCI-H226) was 14.6 µM (inactive). The GI50 (HT-29) was 43.5 µM (inactive), the GI50 (COLO 205) was 45.3 µM (inactive) and the GI50 (DU-145) was 21.1 µM (inactive). The GI50 (CCRF-CEM) was 23.4 µM (inactive), the GI50 (NCI/ADR-RES) was 24.6 µM (inactive) and the GI50 (PC-3) was 44.2 µM (inactive). The GI50 (UACC-62) was 23.3 µM (inactive), the GI50 (RXF 393) was 38.5 µM (inactive) and the GI50 (SK-MEL-5) was 23.9 µM (inactive). For the same compound, the GI50 (SK-MEL-28) was 51.5 µM (inactive).
With Nc1c(Cl)c([N+](=O)[O-])cc2c1OCCCCO2 the GI50 (OVCAR-5) was > 100 µM (inactive), the GI50 (T47D) was > 100 µM (inactive) and the GI50 (OVCAR-4) was > 100 µM (inactive). For the same compound, the GI50 (MDA-MB-231) was 83.4 µM (inactive), the GI50 (U-251) was 3.9 µM (inactive) and the GI50 (SF-539) was > 100 µM (inactive). For the same compound, the GI50 (NCI-H460) was > 100 µM (inactive), the GI50 (IGROV-1) was 40.5 µM (inactive) and the GI50 (SR) was > 100 µM (inactive). For the same compound, the GI50 (HOP-92) was 38.4 µM (inactive), the GI50 (SF-295) was > 100 µM (inactive) and the GI50 (MOLT-4) was > 100 µM (inactive). The GI50 (HOP-62) was > 100 µM (inactive), the GI50 (HCT-116) was > 100 µM (inactive) and the GI50 (UO-31) was > 100 µM (inactive). The GI50 (HL-60) was > 100 µM (inactive), the GI50 (ACHN) was > 100 µM (inactive) and the GI50 (EKVX) was 61.8 µM (inactive). The GI50 (TK-10) was > 100 µM (inactive), the GI50 (LOX IMVI) was 61.4 µM (inactive) and the GI50 (SK-MEL-2) was > 100 µM (inactive). For the same compound, the GI50 (HCT-15) was greater than 100 µM, the GI50 (K562) was > 100 µM (inactive) and the GI50 (SNB-75) was 23.8 µM (inactive). The GI50 (M14) was > 100 µM (inactive), the GI50 (KM12) was > 100 µM (inactive) and the GI50 (A549) was > 100 µM (inactive). The GI50 (NCI-H522) was 2.32 µM (inactive), the GI50 (SW-620) was > 100 µM (inactive) and the GI50 (NCI-H23) was > 100 µM (inactive). For the same compound, the GI50 (MCF7) was > 100 µM (inactive), the GI50 (SN12C) was > 100 µM (inactive) and the GI50 (SNB-19) was > 10 µM (inactive). The GI50 (Malme-3M) was > 100 µM (inactive), the GI50 (CAKI-1) was 56.4 µM (inactive) and the GI50 (SK-OV-3) was 18.3 µM (inactive). The GI50 (OVCAR-3) was > 100 µM (inactive), the GI50 (SF-268) was > 100 µM (inactive) and the GI50 (HCC 2998) was > 100 µM (inactive). The GI50 (MDA-MB-435) was > 100 µM (inactive), the GI50 (Hs-578T) was > 100 µM (inactive) and the GI50 (OVCAR-8) was > 100 µM (inactive). For the same compound, the GI50 (UACC-257) was > 100 µM (inactive), the GI50 (786-0) was > 100 µM (inactive) and the GI50 (NCI-H226) was 72.3 µM (inactive). For the same compound, the GI50 (HT-29) was > 100 µM (inactive), the GI50 (COLO 205) was > 100 µM (inactive) and the GI50 (DU-145) was > 100 µM (inactive). The GI50 (CCRF-CEM) was 79.6 µM (inactive), the GI50 (RPMI-8226) was > 100 µM (inactive) and the GI50 (NCI/ADR-RES) was 89.5 µM (inactive). For the same compound, the GI50 (PC-3) was > 100 µM (inactive), the GI50 (UACC-62) was 95.5 µM (inactive) and the GI50 (RXF 393) was > 100 µM (inactive). The GI50 (SK-MEL-5) was 44.9 µM (inactive), the GI50 (SK-MEL-28) was > 100 µM (inactive) and the GI50 (MDA-N) was > 100 µM (inactive).
